US7700584B2 (Hangzhou Minsheng Pharmaceuticals Co., Ltd., priority 2004, dated 2010)
Like-named read-outs stand apart in the source and are kept apart here.

Tests used:
[1] = target: T1, HIV-1 proteinase (HIV-1 PR) (Human immunodeficiency virus type 1 group M subtype B, UniProt P04585); assay: Screening for in vitro activity against HIV-1 proteinase; format: biochemical; details: for inhibition at 0.08 µg/mL: 0.08 μg/ml; for inhibition at 0.08 µg/mL / inhibition at 0.4 µg/mL / inhibition at 2 µg/mL / inhibition at 10 µg/mL: read-out: Inhibition rate; for inhibition at 0.4 µg/mL: 0.40 μg/ml; for inhibition at 2 µg/mL: 2.0 μg/ml; for inhibition at 10 µg/mL: 10 μg/ml; for IC50: IC50, five 5× serial dilutions from 50 μg/ml; for inhibition at 50 µg/mL: read-out: Inhibition rate, 50 μg/ml
T1 construct: HIV-1 proteinase digests the fluorescent-labeled substrate; purchased
Description: Principle of the test: HIV-1 proteinase digests the fluorescent-labeled substrate in an optimal reaction condition and system. The activity of the enzyme can be reflected by the fluorescent intensity in the product of the enzyme reaction. Adding a sample into the reaction system can be used for screening the inhibitor of the enzyme.
1. HIV-1 PR: commercially available, stored at −85° C.
2. Treatment of the samples: Before use, sample was dissolved in DMSO at a suitable concentration, then serially diluted (5×) with double distilled water, five serial dilutions per sample.
3. Positive control: indinavir, purchased from […].
4. Methods: The diluted sample was added into the reaction buffer containing the fluorescent-labeled substrate. Then the genetic engineered target enzyme was added, and incubated in the optimal reaction condition. The fluorescent value was measured with a FLUO star Galaxy luminoscope.

Hepatitis B virus (HBV) = format: cell-based; details: 200 μg/ml; for (Value of the positive control - Measured Value) Value of the positive control × 100%: decrease of HBeAg relative to positive control; for OD450 of HBeAg: supernatant four days after infection, positive control 1.917, negative 0.057
[2] = system: HL-60 human promyelocytic leukemia; assay: In vitro inhibition rate to tumor cells (MTT), HL-60; format: cell-based; details: Homo sapiens, HL-60, 50 μg/ml, read-out: inhibition rate, Results (%) HL-60
[3] = system: LLC mouse Lewis lung carcinoma; assay: In vitro inhibition rate to tumor cells (MTT), LLC; format: cell-based; details: Mus musculus, Lewis lung carcinoma, 50 μg/ml
[4] = system: Bel-7402 human hepatic carcinoma; assay: In vitro inhibition rate to tumor cells (MTT), Bel-7402; format: cell-based; details: Homo sapiens, Bel-7402, 50 μg/ml, read-out: inhibition rate, Results (%) Bel-7402
[5] = target: T2, HIV-1 integrase (HIV-1 IN) (Human immunodeficiency virus type 1 group M subtype B, UniProt P04585); assay: Screening for the activity against HIV-1 integrase; format: biochemical; details: initial concentration 100 μg/ml; read-out: IC50
T2 construct: a purified HIV-1 integrase was added into each well; purchased
Description: Principle of the test: A synthetic oligonucleotide of 30 nt was used as the donor substrate. A synthetic oligonucleotide of 20 nt was used as the target substrate. A 96-well plate was covered by the donor substrate, and a purified HIV-1 integrase was added into each well. ELISA was performed to measure the product of the target DNA chain transfer. A biotin-labeled alkali phosphatase was used to visual the system. OD value was measured by an Enzyme-linked Detector. Add a sample into the reaction system for screening the inhibitor of the enzyme.
1. HIV-1 IN: commercially available.
2. Treatment of the samples: Before use, the sample was dissolved in water or DMSO at a suitable concentration, then serially diluted (5×), four serial dilutions per sample. The stock solutions of two samples were 100-fold diluted with DMSO, then 5-fold diluted, four serial dilutions per sample. Positive control: S-y, provided by Shanghai Organic Chemistry Institute.
3. The donor substrate and target substrate: synthesized by Shanghai Biological Engineering Company (Shanghai Shenggong).
4. Methods: The diluted sample was added into a 96-well plate covered by the donor substrate, and then added into the reaction buffer containing the genetic engineered target enzyme and biotin-target substrate, incubated in the optimal reaction conditions. A biotin-labeled alkali phosphatase was used to visual the system to determine the absorbance at 450 nm (OD450).

[6] = system: A-549 human lung adenocarcinoma; assay: In vitro inhibition rate to tumor cells (MTT), A-549; format: cell-based; details: Homo sapiens, A549, 50 μg/ml, read-out: inhibition rate, Results (%) A-549
[7] = target: T3, HIV-1 reverse transcriptase (Human immunodeficiency virus type 1 group M subtype B, UniProt P04585); assay: Screening for the in vitro activity against the HIV-1 reverse transcriptase; format: biochemical; details: IC50, initial concentration 200 μg/ml
T3 construct: purchased
Description: Principle of the test: The template to which the HIV-1 reverse transcriptase interacts was covered onto the enzyme-lined template. In the optimal reaction conditions and system, HIV-1 RT will put the substrate comprising Biotin-dUTP onto the reaction template. The activity of the enzyme was measured as the amount of the integrating Biotin-dUTP in the reaction by using streptavidin-labeled horseradish peroxidase. Adding the sample to the reaction system can identify inhibitor of the enzyme.
1. HIV-1 RT: commercially available.
2. Treatment of the samples: Before use, the sample was dissolved in DMSO at a suitable concentration, then serially diluted (5×) with double distilled water, five serial dilutions per sample.
4. Methods: The diluted sample was added into the reaction buffer containing Biotin-dUTP and the genetic engineered target enzyme, and incubated in the optimal reaction conditions. A streptavidin-labeled horseradish peroxidase was added to visual the system, and OD450 was measured.

[8] = system: SMMC-7721 human hepatic carcinoma; assay: In vitro inhibition rate to tumor cells (MTT), SMMC-7721; format: cell-based; details: Homo sapiens, SMMC-7721, 50 μg/ml, read-out: inhibition rate, Results (%) SMMC-7721
[9] = system: Hela human cervical carcinoma; assay: In vitro inhibition rate to tumor cells (MTT), Hela; format: cell-based; details: Homo sapiens, HeLa, 50 μg/ml, read-out: inhibition rate, Results (%) Hela
[10] = system: MCF-7 human mammary adenocarcinoma; assay: In vitro inhibition rate to tumor cells (MTT), MCF-7; format: cell-based; details: Homo sapiens, MCF7, 50 μg/ml, read-out: inhibition rate, Results (%) MCF-7
[11] = system: U-937 human histocytic lymphoma; assay: In vitro inhibition rate to tumor cells (MTT), U-937; format: cell-based; details: Homo sapiens, U-937, 50 μg/ml, read-out: inhibition rate, Results (%) U-937
HepG2 cells = assay: Cell status of HepG2 cells treated with sample (HBV screening); format: cell-based; details: 200 μg/ml, HepG2, four days after infection
Description: 1.5 Screening for the agents: The HepG2 cells were counted and 1.5×10^4 cells/well were seeded into a 96-well plate. After incubation overnight in an atmosphere of CO2 at 37° C., each of the experimental samples in a given concentration was added to the cells. After incubation at 37 °C for 24 hrs, the HepG2 treated with the samples were infected with vAcGFPHBVc of 100 MOI. A negative control and a positive control were also included. Four days after infection, the growth of the cells were observed, and the HBV e antigen in the supernatant was measured with the HBV e antigen diagnostic kit.

Structure (SMILES): CC(C)C1CC23OC1(O)CC1(CO1)C2CCC3C (stereo not drawn) [Compound 47, Curcumol epoxy compound]
- inhibition at 0.08 µg/mL [1]: 6.89%
- inhibition at 0.4 µg/mL [1]: 12.3%
- inhibition at 2 µg/mL [1]: 12.9%
- inhibition at 10 µg/mL [1]: 1.78%
- IC50 [1]: > 198 µM
- inhibition at 50 µg/mL [1]: 0.56%
- (Value of the positive control - Measured Value) Value of the positive control × 100% (Hepatitis B virus (HBV)): 80.96%
- OD450 of HBeAg (Hepatitis B virus (HBV)): 0.365
- inhibition at 50 µg/mL ([2]; Table 1): 10.3%
- inhibition at 50 µg/mL ([2]; Table 2 (repeated screening)): 1.96%
- inhibition at 50 µg/mL ([3]; Table 1): -13.2%
- inhibition at 50 µg/mL ([3]; Table 2 (repeated screening)): -14%
- inhibition at 50 µg/mL ([4]; Table 1): 2.88%
- inhibition at 50 µg/mL ([4]; Table 2 (repeated screening)): 2.35%
- inhibition at 100 µg/mL [5]: < 50%
- inhibition at 50 µg/mL ([6]; Table 1): -12%
- inhibition at 50 µg/mL ([6]; Table 2 (repeated screening)): -7.85%
- IC50 [7]: > 793 µM
- inhibition at 50 µg/mL ([8]; Table 1): -1.43%
- inhibition at 50 µg/mL ([8]; Table 2 (repeated screening)): -3.25%
- inhibition at 50 µg/mL ([9]; Table 1): 83.7%
- inhibition at 50 µg/mL ([9]; Table 2 (repeated screening)): 80.8%
- inhibition at 50 µg/mL ([10]; Table 1): 65.1%
- inhibition at 50 µg/mL ([10]; Table 2 (repeated screening)): 60.5%
- inhibition at 50 µg/mL ([11]; Table 1): 86.5%
- inhibition at 50 µg/mL ([11]; Table 2 (repeated screening)): 85.4%
- Cell status (HepG2 cells): Poor

Structure (SMILES): CC(C)C1CC23OC1(O)CC(C)C2CCC3C (stereo not drawn) [Compound 33, hydrogenated curcumol derivative]
- inhibition at 0.08 µg/mL [1]: 13.2%
- inhibition at 0.4 µg/mL [1]: 11.4%
- inhibition at 2 µg/mL [1]: 10.6%
- inhibition at 10 µg/mL [1]: 1.3%
- IC50 [1]: > 210 µM
- inhibition at 50 µg/mL [1]: 9.14%
- (Value of the positive control - Measured Value) Value of the positive control × 100% (Hepatitis B virus (HBV)): 96.45%
- OD450 of HBeAg (Hepatitis B virus (HBV)): 0.068
- inhibition at 50 µg/mL ([2]; Table 1): 1.32%
- inhibition at 50 µg/mL ([2]; Table 2 (repeated screening)): 7.68%
- inhibition at 50 µg/mL ([3]; Table 1): 4.18%
- inhibition at 50 µg/mL ([3]; Table 2 (repeated screening)): 3.12%
- inhibition at 50 µg/mL ([4]; Table 1): 14.3%
- inhibition at 50 µg/mL ([4]; Table 2 (repeated screening)): 14.9%
- inhibition at 100 µg/mL [5]: < 50%
- inhibition at 50 µg/mL ([6]; Table 1): 16.3%
- inhibition at 50 µg/mL ([6]; Table 2 (repeated screening)): 14.3%
- IC50 [7]: > 839 µM
- inhibition at 50 µg/mL ([8]; Table 1): -7.44%
- inhibition at 50 µg/mL ([8]; Table 2 (repeated screening)): -1.56%
- inhibition at 50 µg/mL ([9]; Table 1): 60.9%
- inhibition at 50 µg/mL ([9]; Table 2 (repeated screening)): 59.8%
- inhibition at 50 µg/mL ([10]; Table 1): 45.3%
- inhibition at 50 µg/mL ([10]; Table 2 (repeated screening)): 39.3%
- inhibition at 50 µg/mL ([11]; Table 1): 44.3%
- inhibition at 50 µg/mL ([11]; Table 2 (repeated screening)): 43.2%
- Cell status (HepG2 cells): Poor
